Data on six compounds can be found in ChEMBL document CHEMBL1152844, “Synthesis and anti-HIV studies of 2- and 3-adamantyl-substituted thiazolidin-4-ones” (Eur J Med Chem, 2009).

For series [1], the system named is Influenza A virus. The series can be described thus: Antiviral activity against Influenza virus type A H3N2 infected in MDCK cells. It counts as functional, organism-based.
The subject of series [2] is Coxsackievirus B4. The series can be described thus: Antiviral activity against Coxsackievirus B4 infected in human HeLa cells. It is filed as functional, organism-based.
Another series relates to Feline coronavirus. The series can be described thus: Antiviral activity against Feline coronavirus infected in crandel feline kidney cells. It is filed as functional, organism-based.
A further series deals with Human respirovirus 3. The series can be described thus: Antiviral activity against Parainfluenza virus type 3 infected in african green monkey Vero cells. It is filed as functional, organism-based.
In a further series the test system is Vaccinia virus. The series can be described thus: Antiviral activity against Vaccinia virus infected in HEL cells. It is filed as functional, organism-based. The conditions noted are these: Orthopoxvirus vaccinia.
Series [3] can be described thus: Selectivity index, ratio of CC50 for human CEM cells to EC50 for HIV1 3B. It is filed as toxicity, cell-based, CCRF-CEM. The conditions noted are these: read-out: Ratio CC50/EC50.
A short description of series [4]: Inhibition of HIV2 ROD reverse transcriptase after 30 mins. More on the design: species or system Human immunodeficiency virus 2.
A further series deals with CCRF-CEM. The series can be described thus: (§1) Cytotoxicity against HIV-infected human CEM cells. It counts as cell-based. The conditions noted are these: ccrf-cem.
Series [5] has as its system Influenza A virus. The series can be described thus: Antiviral activity against Influenza virus type A H1N1 infected in MDCK cells. It is filed as functional, organism-based.
The next series deals with Punta Toro virus. Put plainly: Antiviral activity against Punta Toro virus infected in african green monkey Vero cells. It is filed as functional, organism-based.
The test system of series [6] is Vesicular stomatitis virus. Put plainly: Antiviral activity against Vesicular stomatitis virus infected in human HeLa cells. It counts as functional, organism-based.
For series [7], the system named is Human immunodeficiency virus 2. The series can be described thus: Antiviral activity against HIV2 ROD infected in human CEM cells assessed as inhibition of virus-induced cytopathicity after 4 days. It counts as functional, organism-based. As to conditions: Human immunodeficiency virus 2, ROD, CCRF-CEM, 96 h.
The subject of series [8] is Coxsackievirus B4. The series can be described thus: Antiviral activity against Coxsackievirus B4 infected in african green monkey Vero cells. It counts as functional, organism-based.
In a further series the test system is Sindbis virus. Put plainly: Antiviral activity against Sindbis virus infected in african green monkey Vero cells. It counts as functional, organism-based.
The subject of a further series is Human alphaherpesvirus 2. Put plainly: Antiviral activity against Herpes simplex virus type 2 infected in HEL cells. It is filed as functional, organism-based.
Another series relates to Influenza B virus. The series can be described thus: Antiviral activity against Influenza virus type B infected in MDCK cells. It is filed as functional, organism-based.
Series [9] has as its system Mammalian orthoreovirus 1. The series can be described thus: Antiviral activity against Reovirus 1 infected in african green monkey Vero cells. It counts as functional, organism-based.
Series [10] deals with T1, Human immunodeficiency virus type 1 reverse transcriptase (Human immunodeficiency virus 1, UniProt Q72547). The series can be described thus: Inhibition of HIV1 3B reverse transcriptase after 30 mins.
The next series relates to Human alphaherpesvirus 1. Put plainly: Antiviral activity against Herpes simplex virus type 1 infected in HEL cells. It counts as functional, organism-based.
Series [11] relates to Vesicular stomatitis virus. The series can be described thus: Antiviral activity against Vesicular stomatitis virus infected in HEL cells. It is filed as functional, organism-based.
Series [12] has as its system Respiratory syncytial virus. The series can be described thus: Antiviral activity against Respiratory syncytial virus infected in human HeLa cells. It counts as functional, organism-based.
In series [13] the test system is Human immunodeficiency virus 1. Put plainly: Antiviral activity against HIV1 3B infected in human CEM cells assessed as inhibition of virus-induced cytopathicity after 4 days. It counts as functional, organism-based. As to conditions: Human immunodeficiency virus 1, 3B, CCRF-CEM, 96 h. In general terms: Damage to the host cells serves as the signal in cytopathic effect assays.

Series [14] can be described thus: as §1. It counts as cell-based, CCRF-CEM. The conditions noted are these: HIV-infected CEM (CCRF-CEM) cells.
The target of series [15] is Human immunodeficiency virus type 1 reverse transcriptase (Human immunodeficiency virus 1) (UniProt Q72547). Put plainly: Ratio of Ki to Km for HIV1 non-nucleoside reverse transcriptase.
Series [16] concerns the target T1, Human immunodeficiency virus type 1 reverse transcriptase. Put plainly: Activity at HIV1 non-nucleoside reverse transcriptase.

SMILES strings stand for the structures. Activity calls are given as the source filed them. The rule behind the calls is not given here.

A word on the IC50: it is the concentration needed to halve the response being measured. As usually defined, the CC50 is the concentration at which the toxic effect on the cells reaches its halfway point. By EC50 is commonly meant the concentration needed to bring the measured effect to its halfway point. For the compound `O=C1CSC(c2c(F)cccc2F)N1CC12CC3CC(CC(C3)C1)C2` (stereo not drawn), the outcome with Influenza A virus [1], in the series with Coxsackievirus B4 [2], in the series on Feline coronavirus, in the series with Human respirovirus 3, in the series on Vaccinia virus and in the series with Influenza A virus [5] was inactive. For the same compound, the outcome (in the series with Punta Toro virus; in series [6]; in the series on Coxsackievirus B4 [8]; with Sindbis virus; in the series on Human alphaherpesvirus 2; with Influenza B virus) was inactive. Also, the outcome (in [9]; in the series with Human alphaherpesvirus 1; in series [11]; in [12]) was inactive. Moreover, the selectivity ratio in series [3] was greater than 25. Further, the IC50 in [4] was greater than 600 µM; in series [10], 495 µM. The same compound came in with a 50% cytotoxic concentration (CC50) in the series with CCRF-CEM greater than 275 µM. In addition, the 50% effective concentration (EC50) turned out to be 35.7 µM in [7] and 11 µM in series [13].
With `O=C1CSC(c2c(Cl)cccc2Cl)N1CC12CC3CC(CC(C3)C1)C2` (stereo not drawn), the result with Influenza A virus [1], in the series on Coxsackievirus B4 [2], with Feline coronavirus, in the series on Human respirovirus 3, with Vaccinia virus and with Influenza A virus [5] was inactive. For the same compound, the result (in the series with Punta Toro virus; in series [6]; with Coxsackievirus B4 [8]; with Sindbis virus; in the series on Human alphaherpesvirus 2; with Influenza B virus) was inactive. Moreover, the result (in series [9]; in the series with Human alphaherpesvirus 1; in [11]; in [12]) was inactive. In [3], the selectivity ratio turned out to be 21. Besides, the half-inhibitory concentration (IC50) in [4] was no less than 600 µM; in series [10], 42.9 µM. The CC50 with CCRF-CEM was determined as 21.1 µM. Besides, the EC50 in series [7] was no less than 10.1 µM; in [13], 1 µM.
`O=C1CSC(c2c(Cl)cccc2Cl)N1CCC12CC3CC(CC(C3)C1)C2` (stereo not drawn): the outcome in the series with Influenza A virus [1], in the series with Coxsackievirus B4 [2], with Feline coronavirus, in the series with Human respirovirus 3, in the series on Vaccinia virus and in the series on Influenza A virus [5] was inactive. In addition, the outcome (in the series on Punta Toro virus; in [6]; in the series with Coxsackievirus B4 [8]; with Sindbis virus; in the series on Human alphaherpesvirus 2; in the series on Influenza B virus) was inactive. Also, the result (in series [9]; with Human alphaherpesvirus 1; in series [11]; in series [12]) was inactive. In addition, the selectivity ratio in [3] was 5.5. The half-inhibitory concentration (IC50) in series [4] was greater than 600 µM; in [10], 226 µM. In the series with CCRF-CEM, this compound yielded a CC50 of 19 µM. The EC50 in [7] was no less than 9.7 µM; in series [13], 3.4 µM.
Regarding `CCN(CC)CCN1C(=O)CSC1CC12CC3CC(CC(C3)C1)C2` (stereo not drawn), the outcome in the series with Influenza A virus [1], with Coxsackievirus B4 [2], in the series with Feline coronavirus, with Human respirovirus 3, with Vaccinia virus and in the series with Influenza A virus [5] was inactive. The result (in the series with Punta Toro virus; in [6]; in the series with Coxsackievirus B4 [8]; in the series with Sindbis virus; with Human alphaherpesvirus 2; with Influenza B virus) was inactive. The outcome (in [9]; with Human alphaherpesvirus 1; in series [11]; in [12]) was inactive. Moreover, the selectivity ratio in series [3] was less than 1.4. For the same compound, in series [14], the 50% cytotoxic concentration (CC50) amounted to 43 µM. Moreover, the EC50 came out at 46 µM in [7] and 30.8 µM in series [13].
As a reminder, the Ki is a dissociation constant, usually derived from enzyme kinetics or from competition with a known ligand. Turning to `Cc1cc(C)nc(N2C(=O)CSC2C23CC4CC(CC(C4)C2)C3)c1` (racemic), the outcome with Influenza A virus [1], in the series on Coxsackievirus B4 [2], in the series on Feline coronavirus, with Human respirovirus 3, in the series on Vaccinia virus and with Influenza A virus [5] was inactive. The outcome (with Punta Toro virus; in series [6]; in the series on Coxsackievirus B4 [8]; in the series with Sindbis virus; in the series on Human alphaherpesvirus 2; in the series on Influenza B virus) was inactive. For the same compound, the outcome (in series [9]; in the series on Human alphaherpesvirus 1; in series [11]; in [12]) was inactive. The selectivity ratio in series [3] was 120. Further, the EC50 in series [7] is greater than 12 µM. Moreover, the Ratio in series [15] is 5.5. Further, in series [16], the affinity corresponds to a Ki of 12 µM.
As for `O=C1CSC(c2c(F)cccc2F)N1CCC12CC3CC(CC(C3)C1)C2` (stereo not drawn), the result in the series with Influenza A virus [1], in the series with Coxsackievirus B4 [2], in the series on Feline coronavirus, in the series with Human respirovirus 3, with Vaccinia virus and in the series with Influenza A virus [5] was inactive. Besides, the result (in the series with Punta Toro virus; in [6]; with Coxsackievirus B4 [8]; in the series on Sindbis virus; in the series on Human alphaherpesvirus 2; in the series with Influenza B virus) was inactive. Further, the outcome (in series [9]; in the series on Human alphaherpesvirus 1; in series [11]; in series [12]) was inactive. Besides, in series [3], the selectivity ratio worked out at 4. The IC50 in series [4] is no less than 600 µM; in series [10], 31.7 µM. In addition, the midpoint of cytotoxicity in the series on CCRF-CEM, the CC50, lay at 7.9 µM. Also, the EC50 in series [7] was no less than 4 µM; in [13], 2 µM.
